Laboratory results as given in patent US20170022258A1, “PEPTIDES FOR USE IN THE TREATMENT OF IL-1 RELATED DISEASES AND CONDITIONS” (C4M PHARMACEUTICALS PTY LTD., priority 2011, published 2017).
Like-named read-outs stand apart in the source and are kept apart here. Non-standard residues stand in square brackets, D forms with d. Residues, ends and D or L forms follow the SMILES beside them.

Tests used:
cows = experiment: Testing of peptide 4 in cows for treatment of mastitis; format: in vivo, cow; details: 1 mg, IV
Procedure: (§1) The peptides were prepared as compositions containing 1 mg of peptide dissolved in 5 ml of a solution comprising water, bicarbonate and either benzyl alcohol or methanol.

[1] = tested on: IL-1α-induced IL-8 production by Caco2 cells; experiment: IL-1α induced IL-8 production by Caco2 colonic adenocarcinoma cells; format: cell-based, human; details: peptide 100 ng/ml, FIG. 2
Procedure: Human colon epithelial cell lines HT-29 and Caco2 obtained from the European Collection of Animal Cell Cultures (ECACC) were used in cell cultures. Cells were routinely cultured at 37° C. in an atmosphere of 5% CO2 in 80 cm^2 tissue culture flasks in McCoy's and DMEM medium, respectively, supplemented with penicillin (10 u/ml), streptomycin (10 μg/ml), fungizone (0.5 μg/ml), and 10% (v/v) FCS (referred to as complete medium) until confluent.
Confluent monolayers were sub-cultured into 6-well plates for experimental protocols. Cells were grown in 6-well plates until confluent. Twenty-four hours prior to the experiment the confluent monolayers were washed and cultured in FCS-free McCoy's medium. Growth arrested cultures were then treated with fresh FCS-free medium and stimulated with vehicle controls or various doses of IL-1α added alone or in combination with other pro-inflammatory cytokines (TNF-α, IFN-γ) in the presence or absence of the peptide of sequence 4 or IL-1 ra, in a dose and time dependent manner.
Supernatants were collected, centrifuged to remove cellular debris and stored at −70° C. until assayed for extracellular inflammatory mediators. […] Production of soluble mediators was assessed by commercially available ELISA in supernatants, RT-PCR in total RNA extractants and nitric oxide, as described in Kolios, G, et al. (1995). […]

[2] = Human plasma stability trials; format: in vitro ADME; details: 37° C., 12 hours, read-out: ½ Life human plasma
Procedure: 1 mg of each peptide was added to the plasma and the solution was gently agitated for 2 minutes at room temperature before standing at 37° C. for a period of 12 hours.

[3] = tested on: IL-1 stimulation of IL-8 in human skin fibroblasts; experiment: Inhibition of IL-1 induced IL-8 in human fibroblasts; format: cell-based; details: inhibition of IL-1 stimulation of IL-8 in human skin fibroblasts; average of three measurements and standard error; read-out: Binding (IC50 nM)
human subjects = experiment: Testing of peptide 4 in human subjects for treatment of different diseases and conditions; format: in vivo; details: 1 mg; for Duration: Single
Procedure: The peptide having the sequence 4 was tested to determine its effect on a range of different diseases in humans, horses and cows.
as §1

[4] = Stability of peptide once dissolved in solution (1 month); format: physicochemical; details: 1 mg in 5 ml water, bicarbonate and benzyl alcohol (19, 4) or methanol (13, 14)
Procedure: Each of the peptides having the sequences 13, 14, 19 and 4 were tested to determine their stability in a solution containing (preferred composition above) water, bicarbonate and either benzyl alcohol (peptide 19 and 4) or methanol (peptide 13 and 14). Each of the peptides were held for a period of 1 month at either 4° C. or at room temperature.
1 mg of each peptide was added to the water, bicarbonate and either benzyl alcohol or methanol solution and the solution was gently agitated for 1 hour at room temperature before standing at either 4° C. or at room temperature for a period of 1 month.

[5] = Solubility of peptide under different solvent conditions; format: physicochemical; details: 30 min room temperature
Procedure: 100 mg of each peptide was added to 100 ml total of water plus the solvents, and the solution was gently agitated for 30 min at room temperature.

horses [6] = experiment: Testing of peptide 4 in horses for treatment of osteoarthritis and equine laminitis; format: in vivo, horse; details: 1 mg
Procedure: The peptides were prepared as compositions containing 1 mg of peptide dissolved in 5 ml of solution, comprising water, bicarbonate and either benzyl alcohol or methanol.

horses [7] = experiment: Equine case studies (inflammatory conditions); format: in vivo, horse
Procedure: In these case studies, 13 different horses each suffering from different inflammatory conditions were treated with peptide 4, which was administered by injection in a composition containing the peptide dissolved in 5 ml of a solution comprising water, bicarbonate and either benzyl alcohol or methanol.

CC(=O)N[C@H](CC(C)C)C(=O)N1CCC[C@@H]1C(=O)N[C@H](CC(C)C)C(=O)N[C@H](C)C(=O)N[C@H](Cc1ccc(O)cc1)C(=O)N1CCC[C@@H]1C(=O)N[C@H](CCC(N)=O)C(=O)N[C@H](Cc1c[nH]c2ccccc12)C(=O)N[C@H](Cc1ccc(O)cc1)C(=O)NCC(=O)N1CCC[C@@H]1C(=O)N[C@@H](C(=O)N[C@H](Cc1c[nH]c2ccccc12)C(=O)N[C@H](CCC(=O)O)C(=O)N[C@H](Cc1ccccc1)C(=O)O)[C@H](C)O [SEQ ID NO. 4, Ac-LPLAYPQWYGPTWEF] (Ac-[dL][dP][dL][dA][dY][dP][dQ][dW][dY]G[dP][dT][dW][dE][dF]-OH; C-terminus assumed)
Duration (cows): 72 h
Effect (cows): Pronounced
Effect on IL-1α-induced IL-8 secretion [1]: significant decrease
half-life [2]: 18.1 h
IC50 [3]: 5.9 nM
Effect (human subjects; Cancer Pain from Adrenal Cancer, IM, Repeated): Moderate
Effect (human subjects; Cancer Pain from Bone Metasta, IM, Repeated): Pronounced
Effect (human subjects; Cancer Pain from Lung Cancer, SC, Repeated): Pronounced
Effect (human subjects; Dermatitis, SC): Pronounced
Duration (human subjects; Dermatitis, SC): Single 96 hrs
Effect (human subjects; Emphysema, SC): Moderate
Duration (human subjects; Emphysema, SC): Single 48 hrs
Effect (human subjects; Lymphodema, IM): Pronounced
Duration (human subjects; Lymphodema, IM): Single 96 hrs
Effect (human subjects; Osteoarthritis, Joint): Mild
Duration (human subjects; Osteoarthritis, Joint): Single 48 hrs
Duration (human subjects; T1 Diabetes, IM): Single 96 hrs
Effect (human subjects; Tonsilitis, oral): Pronounced
Duration (human subjects; Tonsilitis, oral): Single 48 hrs
Stability of peptide once dissolved in solution (at 1 month), 4° C. (month) ([4]; 4° C.): 100%
Stability of peptide once dissolved in solution (at 1 month), Room Temp (month) ([4]; room temperature): 96%
solubility at 30 min ([5]; benzyl alcohol (0.1-1%) in water, benzyl alcohol (0.1-1%), 100 mg peptide in 100 ml, read-out: Solubility: Benzyl Alcohol): > 1000 µg/mL
solubility at 30 min ([5]; hydrochloric acid (0.1-1%) in water, hydrochloric acid (0.1-1%), 100 mg peptide in 100 ml water plus solvent, read-out: Solubility: Acid): < 1000 µg/mL
solubility at 30 min ([5]; sodium bicarbonate (0.1-1%) in water, sodium bicarbonate (0.1-1%), 100 mg peptide in 100 ml, read-out: Solubility: Base): < 1000 µg/mL
Duration (horses [6]; Laminitis, IV): 72 h
Effect (horses [6]; Laminitis, IV): Pronounced
Duration (horses [6]; OA, Joint): 48 h
Effect (horses [6]; OA, Joint): Moderate
Period without inflammation post-administration (horses [7]; Case 1): observed for 48 hours
Period of minimal pain and no heat post-administration (horses [7]; Case 2): 48 hours post-
Observations (horses [7]; Case 2: severe pain and heat in near fore hoof, 1 mg bolus intravenous): Minimal pain and no
Observations (horses [7]; Case 3: years of mild laminitis, 1 mg bolus intravenous every 3rd day for three weeks, during period of treatment): Complete relief of all
Time post-administration at which symptoms returned (horses [7]; Case 4): after 8 days. 10 days
Observations (horses [7]; Case 4: near fore fetlock heat and pain, fluid build up in lower deep flexor tendon, 1 mg bolus intravenous, after 8 days): Fetlock completely
Period with no pain or palpation (horses [7]; Case 5): observed for 14 days.
Period of complete pain relief and increased flexion (horses [7]; Case 6): observed for 6 days.
Observations (horses [7]; Case 6: four years of general knee joint pain, sodium hyaluranate (Synvisc) intra-articularly followed by 0.5 mg peptide 4): Complete pain relief
Observations (horses [7]; Case 7: three years of general knee pain, sodium hyaluranate (Synvisc) intra-articularly followed by 0.5 mg peptide 4, no follow up treatment required): Complete pain relief
Period of pronounced relief of symptoms (horses [7]; Case 8): over a 72 hour period.
Observations (horses [7]; Case 9: severe muscle/ligament tear between shoulder and rib cage, 1 mg bolus intravenous, within 24 hours): Symptoms reduced
Observations (horses [7]; Case 10: chronic joint pain in both knees and fetlocks, sodium hyaluranate (Synvisc) intra-articularly followed by 0.5 mg peptide 4, within 24 hours post-treatment): Significant pain relief,
Observations (horses [7]; Case 11: mild work-related shin soreness, 1 mg bolus intravenous every 3rd day for a week, after the second injection): Significant improvement
Observations (horses [7]; Case 12: mild work-related shin soreness, 1 mg bolus intravenous, after 24 hours post-administration): Significant pain relief
Observations (horses [7]; Case 13: severe pain from inflammation and fluid build-up at 18 month old tendon injury, 1 mg weekly bolus intravenous): Complete relief of pain,
